Patent US12059407B2, “Compositions and methods for delivery of macromolecules” (The Regents of the University of California, priority 2017, dated 2024)

Experiments:
HEK293T cells [1] = assay: Cytotoxicity assay in HEK293T cells; format: cell-based
HEK293T cells [2] = assay: Model study with Saporin: protein delivery; format: cell-based; conditions: HEK293T cells treated with only Saporin or only compound 1

Substance	CC50 (HEK293T cells [1])	cell death, single agent only (HEK293T cells [2])
Triton X	59 µM	
Saporin		no cell death
